Reference: the Kinase Knowledgebase extract (Sharma et al. 2016)

target: PIK3CG (human) (UniProt P48736); experiment: Inhibition of PIK3CG Kinase Activity
Sequence (P48736 whole entry, looked up): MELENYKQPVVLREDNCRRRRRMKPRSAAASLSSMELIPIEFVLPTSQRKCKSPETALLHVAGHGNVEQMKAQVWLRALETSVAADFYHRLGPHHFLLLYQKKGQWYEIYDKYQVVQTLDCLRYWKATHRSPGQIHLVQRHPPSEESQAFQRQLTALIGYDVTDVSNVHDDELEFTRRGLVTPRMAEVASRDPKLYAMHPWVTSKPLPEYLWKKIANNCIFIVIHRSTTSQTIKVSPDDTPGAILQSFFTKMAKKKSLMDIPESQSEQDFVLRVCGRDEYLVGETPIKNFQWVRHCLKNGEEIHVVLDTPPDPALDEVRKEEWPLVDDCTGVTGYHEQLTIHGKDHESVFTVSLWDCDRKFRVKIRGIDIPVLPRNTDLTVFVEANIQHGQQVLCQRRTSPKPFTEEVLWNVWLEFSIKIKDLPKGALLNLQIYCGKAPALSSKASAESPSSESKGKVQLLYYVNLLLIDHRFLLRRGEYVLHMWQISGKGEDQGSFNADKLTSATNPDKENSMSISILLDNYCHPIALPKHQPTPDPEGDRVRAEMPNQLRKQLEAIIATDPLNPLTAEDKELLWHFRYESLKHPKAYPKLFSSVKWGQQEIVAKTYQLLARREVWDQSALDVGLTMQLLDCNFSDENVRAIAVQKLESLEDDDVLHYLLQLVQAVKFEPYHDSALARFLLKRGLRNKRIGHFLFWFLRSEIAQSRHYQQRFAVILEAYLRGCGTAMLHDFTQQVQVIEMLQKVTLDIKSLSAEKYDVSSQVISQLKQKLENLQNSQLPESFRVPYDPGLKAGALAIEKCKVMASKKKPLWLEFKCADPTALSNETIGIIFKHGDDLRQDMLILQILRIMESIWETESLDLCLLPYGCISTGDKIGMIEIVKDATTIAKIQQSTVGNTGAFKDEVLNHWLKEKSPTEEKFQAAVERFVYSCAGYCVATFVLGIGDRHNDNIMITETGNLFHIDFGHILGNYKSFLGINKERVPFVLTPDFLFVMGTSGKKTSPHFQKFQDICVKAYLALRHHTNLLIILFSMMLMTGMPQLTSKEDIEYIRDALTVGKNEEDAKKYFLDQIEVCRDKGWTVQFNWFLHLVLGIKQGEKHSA

IC50, < 10 µM:
Nc1nc2ccc(-c3cncc(S(=O)(=O)Nc4ccccc4C(F)(F)F)c3)cn2n1
CCCNS(=O)(=O)c1cncc(-c2ccc3nc(N)nn3c2)c1
Nc1nc2ccc(-c3ccccc3)cn2n1
COc1ccccc1NS(=O)(=O)c1cncc(-c2ccc3nc(N)nn3c2)c1
COc1ccc(NS(=O)(=O)c2cncc(-c3ccc4nc(N)nn4c3)c2)cc1
Nc1nc2ccc(-c3cccc(S(=O)(=O)NCCO)c3)cn2n1
Nc1nc2ccc(-c3cncc(S(=O)(=O)NCC4CCC4)c3)cn2n1
Nc1nc2ccc(-c3cncc(S(=O)(=O)NCC4CCCCCC4)c3)cn2n1
CC(C)CCNS(=O)(=O)c1cncc(-c2ccc3nc(N)nn3c2)c1
Nc1nc2ccc(-c3cncc(NS(=O)(=O)Cc4ccccc4C(F)(F)F)c3)cn2n1
Nc1nc2ccc(-c3ccc4c(c3)OCCO4)cn2n1
Nc1nc2ccc(-c3cncc(S(=O)(=O)NCC4CCOCC4)c3)cn2n1
CCCCNS(=O)(=O)c1cncc(-c2ccc3nc(N)nn3c2)c1
CC1(NS(=O)(=O)c2cncc(-c3ccc4nc(N)nn4c3)c2)CCC1
CC(C)(C)NS(=O)(=O)c1cncc(-c2ccc3nc(N)nn3c2)c1
NCCNS(=O)(=O)c1cncc(-c2ccc3nc(N)nn3c2)c1
CC(C)c1ccc(S(=O)(=O)Nc2cncc(-c3ccc4nc(N)nn4c3)c2)cc1
Nc1nc2ccc(-c3cn[nH]c3)cn2n1
CC(C)c1cccc(NS(=O)(=O)c2cncc(-c3ccc4nc(N)nn4c3)c2)c1
CS(=O)(=O)c1cccc(-c2cc(F)c3nc(N)nn3c2)c1
Nc1nc2c(F)cc(-c3cncc(S(=O)(=O)NCC(F)(F)F)c3)cn2n1
CC(=O)Nc1cccc(-c2ccc3nc(N)nn3c2)c1
Nc1nc2ccc(-c3cncc(S(=O)(=O)Nc4cc(C(F)(F)F)cc(C(F)(F)F)c4)c3)cn2n1
Nc1nc2ccc(-c3cncc(S(=O)(=O)N4CCCCCC4)c3)cn2n1
COc1ccc(-c2ccc3nc(NC(N)=O)nn3c2)cc1OC
Nc1nc2ccc(-c3cncc(NS(=O)(=O)c4ccc(Cl)cc4)c3)cn2n1
CCCCN(C)S(=O)(=O)c1cncc(-c2ccc3nc(N)nn3c2)c1
Nc1nc2ccc(-c3cncc(S(=O)(=O)Nc4ccc(F)c(F)c4)c3)cn2n1
Nc1nc2ccc(-c3cncc(S(=O)(=O)N4CCc5ccccc5C4)c3)cn2n1
CC(C)c1ccccc1NS(=O)(=O)c1cncc(-c2ccc3nc(N)nn3c2)c1
Nc1nc2ccc(-c3cncc(NS(=O)(=O)Cc4ccc(C(F)(F)F)cc4)c3)cn2n1
Nc1nc2ccc(-c3cncc(S(=O)(=O)Nc4ccc(F)cc4F)c3)cn2n1
Nc1nc2ccc(-c3cncc(S(=O)(=O)Nc4cccc(OC(F)(F)C(F)F)c4)c3)cn2n1
CCCCN(Cc1ccccc1)S(=O)(=O)c1cncc(-c2ccc3nc(N)nn3c2)c1
CC(C)(C)NS(=O)(=O)c1cncc(-c2cc(F)c3nc(N)nn3c2)c1
Nc1nc2ccc(-c3cncc(S(=O)(=O)N4CCNCC4)c3)cn2n1
Nc1nc2ccc(-c3cncc(NS(=O)(=O)c4ccccc4C(F)(F)F)c3)cn2n1
CN(Cc1ccccc1)S(=O)(=O)c1cncc(-c2ccc3nc(N)nn3c2)c1
CC(C)(C)S(=O)(=O)c1cncc(-c2ccc3nc(N)nn3c2)c1
Nc1nc2ccc(-c3cncc(Cl)c3)cn2n1
CN(C)S(=O)(=O)c1cncc(-c2ccc3nc(N)nn3c2)c1
Nc1nc2ccc(-c3cncc(S(=O)(=O)Nc4cccc(C(F)(F)F)c4)c3)cn2n1
COc1cc(-c2ccc3nc(N)nn3c2)ccc1OC(C)C
Nc1nc2ccc(-c3cncc(S(=O)(=O)NC4CC4)c3)cn2n1
Nc1nc2ccc(-c3cccc(C(=O)O)c3)cn2n1
CN(C(C)(C)C)S(=O)(=O)c1cncc(-c2ccc3nc(N)nn3c2)c1
Nc1nc2ccc(-c3cccc(F)c3)cn2n1
Nc1nc2ccc(-c3cncc(S(=O)(=O)NC4CCCC4)c3)cn2n1
CN(C)CCCNS(=O)(=O)c1cccc(-c2ccc3nc(N)nn3c2)c1
Nc1nc2ccc(-c3cncc(S(=O)(=O)N4Cc5ccccc5C4)c3)cn2n1
CC(C)NS(=O)(=O)c1cncc(-c2cc(F)c3nc(N)nn3c2)c1
Nc1nc2ccc(-c3cncc(S(N)(=O)=O)c3)cn2n1
Nc1nc2ccc(-c3cccc(Cl)c3)cn2n1
Nc1nc2ccc(-c3cncc(S(=O)(=O)Nc4ccc(OC(F)F)cc4)c3)cn2n1
CCNc1cccc(-c2ccc3nc(N)nn3c2)c1
Nc1nc2ccc(-c3cncc(S(=O)(=O)Nc4ccc(C(F)(F)F)cc4)c3)cn2n1
CCN(C)S(=O)(=O)c1cncc(-c2cc(F)c3nc(N)nn3c2)c1
Nc1nc2ccc(-c3cccc(S(=O)(=O)NCCCC(=O)O)c3)cn2n1
Nc1nc2ccc(-c3cncc(NS(=O)(=O)c4ccc(C(F)(F)F)cc4)c3)cn2n1
COc1cc(-c2ccc3nc(N)nn3c2)ccc1O
Nc1nc2ccc(-c3cncc(S(=O)(=O)Nc4ccccc4F)c3)cn2n1
Nc1nc2ccc(-c3cncc(S(=O)(=O)NCc4ccccc4)c3)cn2n1
N#Cc1cccc(-c2ccc3nc(N)nn3c2)c1
Nc1nc2ccc(-c3cncc(S(=O)(=O)N4CCOCC4)c3)cn2n1
Nc1nc2ccc(-c3cncc(S(=O)(=O)NC4CCC(O)CC4)c3)cn2n1 (stereo not given)
